Source: patent US10597388B2, “Pyridazinone herbicides” (FMC CORPORATION, priority 2014, dated 2020)

How the values were obtained:
Test in all cases: Test D controlled growth environment herbicide test, pre- and postemergence
Type in all cases: in vivo
[1] = system: Russian thistle (Salsola kali)
From the text: (§1) Seeds of plant species selected from bluegrass (annual bluegrass, Poa annua), blackgrass (Alopecurus myosuroides), Canada thistle (Cirsium arvense), canarygrass (Phalaris minor), chickweed (common chickweed, Stellaria media), geranium, cutleaf (cutleaf geranium, Geranium dissectum), galium (catchweed bedstraw, Galium aparine), bromegrass, downy (downy bromegrass, Bromus tectorum), field poppy (Papaver rhoeas), field violet (Viola arvensis), foxtail, green (green foxtail, Setaria viridis), deadnettle (henbit deadnettle, Lamium amplexicaule), ryegrass, Italian (Italian ryegrass, Lolium multiflorum), kochia (Kochia scoparia), lambsquarters (Chenopodium album), oilseed rape (Brassica napus), pigweed (Amaranthus retroflexus), chamomile (scentless chamomile, Matricaria inodora), Russian thistle (Salsola kali), speedwell (bird's-eye speedwell, Veronica persica), barley, spring (spring barley, Hordeum vulgare), wheat, spring (spring wheat, Triticum aestivum), buckwheat, wild (wild buckwheat, Polygonum convolvulus), mustard, wild (wild mustard, Sinapis arvensis), oat, wild (wild oat, Avena fatua), radish, wild (wild radish, Raphanus raphanistrum), windgrass (Apera spica-venti), barley, winter (winter barley, Hordeum vulgare), and wheat, winter (winter wheat, Triticum aestivum) were planted into a silt loam soil and treated preemergence with test chemicals formulated in a non-phytotoxic solvent mixture which included a surfactant.
(§2) At the same time, these species were planted in pots containing Redi-Earth® planting medium (Scotts Company, 14111 Scottslawn Road, Marysville, Ohio 43041) comprising spaghnum peat moss, vermiculite, wetting agent and starter nutrients and treated with postemergence applications of the test chemicals formulated in the same manner. Plants ranged in height from 2 to 18 cm (1- to 4-leaf stage). Treated plants and controls were maintained in a controlled growth environment for 14 to 21 d after which time all species were compared to controls and visually evaluated. Plant response ratings, summarized in Table D, are based on a scale of 0 to 100 where 0 is no effect and 100 is complete control. A dash (-) response means no test result.

[2] = system: barley, winter (winter barley, Hordeum vulgare)
From the text: as §1, §2

[3] = system: bluegrass (annual bluegrass, Poa annua)
From the text: as §1, §2

[4] = system: field violet (Viola arvensis)
From the text: as §1, §2

[5] = system: oat, wild (wild oat, Avena fatua)
From the text: as §1, §2

[6] = system: pigweed (Amaranthus retroflexus)
From the text: as §1, §2

[7] = system: radish, wild (wild radish, Raphanus raphanistrum)
From the text: as §1, §2

[8] = system: speedwell (bird's-eye speedwell, Veronica persica)
From the text: as §1, §2

[9] = system: wheat, winter (winter wheat, Triticum aestivum)
From the text: as §1, §2

[10] = system: windgrass (Apera spica-venti)
From the text: as §1, §2

[11] = Postemergence, 31 g ai/ha, scale 0 to 100 (0 no effect, 100 complete control)
[12] = Postemergence, 125 g ai/ha, visual rating on scale 0 (no effect) to 100 (complete control), 14 to 21 d
[13] = Postemergence, 250 g ai/ha, scale 0 to 100 (0 no effect, 100 complete control)
[14] = Preemergence, 62 g ai/ha, scale 0 to 100 (0 no effect, 100 complete control)
[15] = Preemergence, 125 g ai/ha, scale 0 to 100 (0 no effect, 100 complete control)
[16] = Preemergence, 250 g ai/ha, scale 0 to 100, 0 no effect, 100 complete control
[17] = postemergence, 62 g ai/ha, scale 0 to 100, 0 no effect, 100 complete control

SMILES: Cc1nn(C)c(=O)c(-c2c(C)sc3ccc(Br)cc23)c1O [Compound 22]
- Russian Thistle plant response rating [1, 11]: 65
- Plant response rating, Russian Thistle [1, 12]: 75
- Plant response rating, Russian Thistle [1, 13]: 85
- Plant response rating (scale of 0 to 100), Russian Thistle ([1]; Preemergence, 31 g ai/ha): 0
- Plant response rating, Russian Thistle [1, 14]: 0
- Plant response rating, Russian Thistle [1, 15]: 0
- Plant response rating, Russian Thistle [1, 16]: 20
- Plant response rating, Russian Thistle [1, 17]: 70
- Plant response rating, Barley, Winter [2, 11]: 0
- Plant response rating, Barley, Winter [2, 12]: 0
- Plant response rating, Barley, Winter [2, 13]: 5
- Plant response rating (scale of 0 to 100), Barley, Winter ([2]; Preemergence, 31 g ai/ha): 0
- Plant response rating, Barley, Winter [2, 14]: 0
- Plant response rating, Barley, Winter [2, 15]: 0
- Barley, Winter plant response rating [2, 16]: 0
- Plant response rating, Barley, Winter [2, 17]: 0
- Bluegrass plant response rating [3, 11]: 10
- Plant response rating, Bluegrass [3, 12]: 25
- Plant response rating, Bluegrass [3, 13]: 25
- Plant response rating (scale of 0 to 100), Bluegrass ([3]; Preemergence, 31 g ai/ha): 0
- Plant response rating, Bluegrass [3, 14]: 30
- Plant response rating, Bluegrass [3, 15]: 30
- Bluegrass plant response rating [3, 16]: 40
- Plant response rating, Bluegrass [3, 17]: 15
- Field Violet plant response rating [4, 11]: 70
- Plant response rating, Field Violet [4, 12]: 75
- Plant response rating, Field Violet [4, 13]: 95
- Plant response rating (scale of 0 to 100), Field Violet ([4]; Preemergence, 31 g ai/ha): 20
- Plant response rating, Field Violet [4, 14]: 65
- Plant response rating, Field Violet [4, 15]: 80
- Plant response rating, Field Violet [4, 16]: 100
- Plant response rating, Field Violet [4, 17]: 70
- Oat, Wild plant response rating [5, 11]: 65
- Plant response rating, Oat, Wild [5, 12]: 85
- Plant response rating, Oat, Wild [5, 13]: 100
- Plant response rating (scale of 0 to 100), Oat, Wild ([5]; Preemergence, 31 g ai/ha): 30
- Plant response rating, Oat, Wild [5, 14]: 55
- Plant response rating, Oat, Wild [5, 15]: 70
- Plant response rating, Oat, Wild [5, 16]: 95
- Plant response rating, Oat, Wild [5, 17]: 85
- Pigweed plant response rating [6, 11]: 85
- Plant response rating, Pigweed [6, 12]: 98
- Plant response rating, Pigweed [6, 13]: 100
- Plant response rating (scale of 0 to 100), Pigweed ([6]; Preemergence, 31 g ai/ha): 100
- Plant response rating, Pigweed [6, 14]: 98
- Plant response rating, Pigweed [6, 15]: 98
- Plant response rating, Pigweed [6, 16]: 100
- Plant response rating, Pigweed [6, 17]: 95
- Radish, Wild plant response rating [7, 11]: 85
- Plant response rating, Radish, Wild [7, 12]: 100
- Plant response rating, Radish, Wild [7, 13]: 85
- Plant response rating (scale of 0 to 100), Radish, Wild ([7]; Preemergence, 31 g ai/ha): 0
- Plant response rating, Radish, Wild [7, 14]: 25
- Plant response rating, Radish, Wild [7, 15]: 70
- Plant response rating, Radish, Wild [7, 16]: 80
- Plant response rating, Radish, Wild [7, 17]: 75
- Speedwell plant response rating [8, 11]: 60
- Plant response rating, Speedwell [8, 12]: 65
- Plant response rating, Speedwell [8, 13]: 100
- Plant response rating (scale of 0 to 100), Speedwell ([8]; Preemergence, 31 g ai/ha): 0
- Plant response rating, Speedwell [8, 14]: 0
- Plant response rating, Speedwell [8, 15]: 50
- Plant response rating, Speedwell [8, 16]: 100
- Plant response rating, Speedwell [8, 17]: 60
- Wheat, Winter plant response rating [9, 11]: 5
- Plant response rating, Wheat, Winter [9, 12]: 15
- Plant response rating, Wheat, Winter [9, 13]: 15
- Plant response rating (scale of 0 to 100), Wheat, Winter ([9]; Preemergence, 31 g ai/ha): 0
- Plant response rating, Wheat, Winter [9, 14]: 0
- Plant response rating, Wheat, Winter [9, 15]: 0
- Plant response rating, Wheat, Winter [9, 16]: 5
- Plant response rating, Wheat, Winter [9, 17]: 5
- Windgrass plant response rating [10, 11]: 15
- Plant response rating, Windgrass [10, 12]: 35
- Plant response rating, Windgrass [10, 13]: 55
- Plant response rating (scale of 0 to 100), Windgrass ([10]; Preemergence, 31 g ai/ha): 0
- Plant response rating, Windgrass [10, 14]: 20
- Plant response rating, Windgrass [10, 15]: 70
- Plant response rating, Windgrass [10, 16]: 80
- Plant response rating, Windgrass [10, 17]: 20
